Series [1] has as its system Mycobacterium tuberculosis. Description: Antitubercular activity against Mycobacterium tuberculosis H37Rv assessed as growth inhibition at 6.25 ug/ml after 4 days by microplate alamar blue assay. The format is functional. The conditions noted are these: 96 h.
Series [2] can be described thus: Selectivity index, ratio of IC50 for African green monkey Vero cells to MIC for Mycobacterium tuberculosis H37Rv. The format is toxicity, cell-based. Particulars: read-out: Selectivity Index.
The test system of series [3] is Vero. Nature of the series: Cytotoxicity against African green monkey Vero cells. The format is cell-based. The conditions noted are these: Chlorocebus sabaeus.
In series [4] the test system is Mycobacterium tuberculosis. Description: Antitubercular activity against Mycobacterium tuberculosis H37Rv assessed as growth inhibition by 2-fold dilution assay. The format is functional.

Molecules are shown by their SMILES. Values after ≈ are worked out from the molar mass of the structure shown.

As for `Cc1nn(-c2ccc3c(c2)Nc2ccccc2S3)c2c1C(c1cccc([N+](=O)[O-])c1)NC(N)=N2` (centres undefined), the inhibition at 6.25 µg/mL in series [1] worked out at 73%.

As for `Cc1nn(-c2ccc3c(c2)Nc2ccccc2S3)c2c1C(c1ccc(O)cc1)NC(N)=N2` (centres undefined), the inhibition at 6.25 µg/mL in series [1] was 67%.

Take `Cc1nn(-c2ccc3c(c2)Nc2ccccc2S3)c2c1C(c1ccccc1Cl)NC(N)=N2` (centres undefined): the selectivity ratio in series [2] worked out at 5.8. In series [3], this molecule had an IC50 above 10 µg/mL. For the same molecule, the MIC in series [4] amounted to 1.73 µg/mL (≈ 3.77 µM). Further, in series [1], the inhibition at 6.25 µg/mL came to 95%.

With `Cc1nn(-c2ccc3c(c2)Nc2ccccc2S3)c2c1C(c1ccccc1O)NC(N)=N2` (centres undefined), the selectivity ratio in series [2] was 3.5. In series [3], this molecule gave an IC50 of 7.8 µg/mL (≈ 17.7 µM). Also, in series [4], the MIC amounted to 2.23 µg/mL (≈ 5.06 µM). Further, in series [1], the inhibition at 6.25 µg/mL amounted to 92%.

`COc1ccc(C2NC(N)=Nc3c2c(C)nn3-c2ccc3c(c2)Nc2ccccc2S3)cc1` (centres undefined): the inhibition at 6.25 µg/mL in series [1] was determined as 42%.

On to `Cc1nn(-c2ccc3c(c2)Nc2ccccc2S3)c2c1C(c1ccc([N+](=O)[O-])cc1)NC(N)=N2` (centres undefined), for which the selectivity ratio in series [2] was found to be 5.2. In series [3], this molecule had an IC50 of 9.1 µg/mL (≈ 19.4 µM). In series [4], the MIC worked out at 1.73 µg/mL (≈ 3.68 µM). For the same molecule, the inhibition at 6.25 µg/mL in series [1] turned out to be 95%.

`Cc1nn(-c2ccc3c(c2)Nc2ccccc2S3)c2c1C(c1ccc(Cl)cc1)NC(N)=N2` (centres undefined): the selectivity ratio in series [2] was above 500. Further, the IC50 in series [3] was above 10 µg/mL. For the same molecule, the MIC in series [4] came to 0.02 µg/mL (≈ 0.0436 µM). Moreover, in series [1], the inhibition at 6.25 µg/mL stood at 100%.

As for `Cc1nn(-c2ccc3c(c2)Nc2ccccc2S3)c2c1C(c1ccccc1[N+](=O)[O-])NC(N)=N2` (centres undefined), in series [2], the selectivity ratio is 5.8. The molecule also came in with an IC50 in series [3] above 10 µg/mL. For the same molecule, the MIC in series [4] stood at 1.73 µg/mL (≈ 3.68 µM). For the same molecule, the inhibition at 6.25 µg/mL in series [1] stood at 94%.

In the case of `Cc1nn(-c2ccc3c(c2)Nc2ccccc2S3)c2c1C(c1ccccc1)NC(N)=N2` (centres undefined), the inhibition at 6.25 µg/mL in series [1] is 78%.

Take `NNC(=O)c1ccncc1` [ISONIAZID]: in series [2], the selectivity ratio was above 40000. Besides, the IC50 in series [3] is above 1000 µg/mL. Moreover, the MIC in series [4] came out at 0.03 µg/mL (≈ 0.219 µM).

Turning to `Cc1nn(-c2ccc3c(c2)Nc2ccccc2S3)c2c1C(c1cccc(Cl)c1)NC(N)=N2` (centres undefined), the inhibition at 6.25 µg/mL in series [1] was 56%.

Consider `Cc1nn(-c2ccc3c(c2)Nc2ccccc2S3)c2c1C(c1cccc(O)c1)NC(N)=N2` (centres undefined), for which, in series [1], the inhibition at 6.25 µg/mL came out at 57%.

For the origin of these results see ChEMBL document CHEMBL3124789, “4,5-Dihydro-1H-pyrazolo[3,4-d]pyrimidine containing phenothiazines as antitubercular agents” (Bioorg Med Chem Lett, 2014).
